Common to all, as to type: cell-based, mouse
One assay deals with ERK. The assay is described as follows: Western blot of MAPK pathway, phosphorylated ERK. As to conditions: 10 μg/ml co-treated with 100 ng/ml RANKL, 0-60 minutes. How it is done:
(§1) The effect of the compound of formula I on the protein expression of osteoclast MAPKs pathways induced by receptor activator of nuclear factor κB ligand was studied, experiments were performed by using the Western blot method; RAW 264.7 cells were rinsed in ice-cold PBS, cell lysis buffer was added, the components of the buffer solution included: 10 mM 4-(2-hydroxyethyl)-1-piperazineethanesulfonic acid (HEPES), 1.5 mM MgCl2, 0.5 mM dithiothreitol (DTT), 0.5 μg/ml leupeptin and 6.4% Nonidet P-40, reacted on ice for 15 minutes. The cells were scraped off with a spatula, collected into a 1.5 ml centrifuge tube, the cells were thoroughly broken by using a shaker; centrifuged at 12,000 rpm, 4° C. for 10 minutes; supernatant was added into a new 1.5 ml centrifuge tube; boiled with IX sodiumdodecyl sulfate (SDS) sample buffer, followed by electrophoresis using 10 to 12% SDS-PAGE. […] The transfer membrane was rinsed again and the membrane loaded with chemical luminescence reagent ECL was allowed to react with a photosensitive sheet in a darkroom for a suitable period of time, the photosensitive sheet then reacted with the developer. After the photosensitive sheet was exposed to light a band-shaped antibody-binding proteins was observed, quantified by the density of the bands. […]
(Immunoblotting shows a protein as a band on a membrane.)

Another assay has as its system p38. Put plainly: Western blot of MAPK pathway, phosphorylated p38. As to conditions: 10 μg/ml co-treated with 100 ng/ml RANKL, 0-60 minutes. On the procedure: as §1
Assay [1] concerns osteoclast differentiation induced by receptor activator of nuclear factor κB ligand in RAW 264.7 cells. Put plainly: Osteoclast differentiation test (tartrate-resistant acid phosphatase staining). The text has this: The present invention used monocyte/macrophage cell line RAW 264.7 from mouse as an experimental model of the osteoclast differentiation system. RAW 264.7 cells differentiated into osteoclasts in an environment containing receptor activator of nuclear factor κB ligand. RAW 264.7 was obtained from a tumor induced by Abelson murine leukemia virus and purchased from the American Type Culture Collection (ATCC; Rockville, Md.). To culture osteoclasts, RAW 264.7 cells were used, cultured in a 24-well plate, the number of cells in each well was 1×10^4 cell/ml and cultured in a medium containing 100 ng/ml of receptor activator of nuclear factor κB ligand or co-treated with different concentrations of the compound of formula I.
In order to simulate physiological functions of the bone, we simulated the in vivo environment and some hormones essential to differentiation were added. The hormone environment suitable for […] cells was simulated for osteoclast differentiation. […] Markers for osteoclast differentiation were evaluated by staining with tartrate-resistant acid phosphatase. […]
Osteoclast formation was detected by quantifying the staining positive rate of tartrate-resistant acid phosphatase (387-A, Sigma-Aldrich, St. Louis, Mo.). […]

Turning to `CNC(=O)N[C@]1(C)CCC[C@@]2(C)C3CC[C@@]4(C)C[C@]3(CCC21)CC4=O` (single isomer, unassigned; ent-16) [compound of formula I, ent-16-oxobeyeran-19-N-methylureido], in the assay with ERK, the “expression of phosphorylated ERK” value is “decreased”. In addition, the “expression of phosphorylated p38” value in the assay with p38 is given as “decreased”. Further, in assay [1] (10 μg/ml co-treated with 100 ng/ml RANKL, 2, 4, 6 days), the “osteoclast differentiation over time (TRAP-positive multinucleated cells)” value is “significant and inhibitory effect”. Besides, in assay [1] (10 μg/ml co-treated with 100 ng/ml RANKL, 6 days), the “level of osteoclast differentiation (TRAP-positive multinucleated cells)” value is “decrease in the level of osteoclast differentiation”.

The record behind these values is US20180042874A1, “METHOD FOR TREATING OSTEOPOROSIS” (China Medical University, priority 2016, published 2018).
